From patent US8772494B2, “N-aryl piperidine substituted biphenylcarboxamides as inhibitors of apolipoprotein b” (Janssen Pharmaceutica N.V., priority 2003, dated 2014)

Assays:
[1] = test system: ApoB secretion, HepG2 cells; assay: Quantification of the secretion of ApoB; assay type: cell-based; settings: Homo sapiens, 24 hours of incubation, secreted apoB immunoprecipitated, read-out: pIC50 values (= −log IC50 value) (converted)
Protocol: HepG2 cells were cultured in 24-well plates in MEM Rega 3 containing 10% fetal calf serum. At 70% confluency, the medium was changed and the test compound or carrier (DMSO, 0.4% final concentration) was added. After 24 hours of incubation, the medium was transferred to Eppendorf tubes and cleared by centrifugation. A sheep antibody directed against either apoB was added to the supernatant and the mixture was kept at 8° C. for 24 hours. Then, rabbit anti-sheep antibody was added and the immune complex was allowed to precipitate for 24 hours at 8° C. The immunoprecipitate was pelleted by centrifugation for 25 minutes at 1320 g and washed twice with a buffer containing 40 mM Mops, 40 mM NaH2PO4, 100 mM NaF, 0.2 mM DTT, 5 mM EDTA, 5 mM EGTA, 1% Triton-X-100, 0.5% sodium deoxycholate (DOC), 0.1% SDS, 0.2 μM leupeptin and 0.2 μM PMSF. Radioactivity in the pellet was quantified by liquid scintillation counting.
Resulting IC50 values are enumerated in Table C.1. When the calculated IC50 was below 6, not enough data points were available at the tested concentrations to calculate an IC50 value.

MTP = MTP (Homo sapiens, UniProt P55157); assay: MTP assay (triglyceride transfer from donor to acceptor vesicles); assay type: biochemical; settings: MTP activity, percent triglyceride transfer, 37° C.; read-out: pIC50 values (= −log IC50 value) (converted)
Protocol: MTP activity was measured using an assay similar to one described by J. R. Wetterau and D. B. Zilversmit in Chemistry and Physics of Lipids, 38, 205-222 (1985). To prepare the donor and acceptor vesicles, the appropriate lipids in chloroform were put into a glass test tube and dried under a stream of N2. A buffer containing 15 mM Tris-HCl pH 7.5, 1 mM EDTA, 40 mM NaCl, 0.02% NaN3 (assay buffer) was added to the dried lipid. The mixture was vortexed briefly and the lipids were then allowed to hydrate for 20 min on ice. Vesicles were then prepared by bath sonication (Branson 2200) at room temperature for maximum 15 min. Butylated hydroxytoluene was included in all vesicle preparations at a concentration of 0.1%. The lipid transfer assay mixture contained donor vesicles (40 nmol phosphatidylcholine, 7.5 mol % of cardiolipin and 0.25 mol % glycerol tri [1-^14C]-oleate), acceptor vesicles (240 nmol phosphatidylcholine) and 5 mg BSA in a total volume of 675 μl in a 1.5 ml microcentrifuge tube. Test compounds were added dissolved in DMSO (0.13% final concentration). After 5 minutes of pre-incubation at 37° C., the reaction was started by the addition of MTP in 100 μl dialysis buffer. The reaction was stopped by the addition of 400 μl DEAE-52 cellulose pre-equilibrated in 15 mM Tris-HCl pH 7.5, 1 mM EDTA, 0.02% NaN3 (1:1, vol/vol). The mixture was agitated for 4 min and centrifuged for 2 min at maximum speed in an Eppendorf centrifuge (4° C.) to pellet the DEAE-52-bound donor vesicles. An aliquot of the supernatant containing the acceptor liposomes was counted and the [^14C]-counts were used to calculate the percent triglyceride transfer from donor to acceptor vesicles.
Resulting IC50 values are enumerated in Table C.2. When the calculated IC50 was below 7, not enough data points were available at the tested concentrations to calculate an IC50 value.

Chain of MTP (P55157 19-894, species assumed): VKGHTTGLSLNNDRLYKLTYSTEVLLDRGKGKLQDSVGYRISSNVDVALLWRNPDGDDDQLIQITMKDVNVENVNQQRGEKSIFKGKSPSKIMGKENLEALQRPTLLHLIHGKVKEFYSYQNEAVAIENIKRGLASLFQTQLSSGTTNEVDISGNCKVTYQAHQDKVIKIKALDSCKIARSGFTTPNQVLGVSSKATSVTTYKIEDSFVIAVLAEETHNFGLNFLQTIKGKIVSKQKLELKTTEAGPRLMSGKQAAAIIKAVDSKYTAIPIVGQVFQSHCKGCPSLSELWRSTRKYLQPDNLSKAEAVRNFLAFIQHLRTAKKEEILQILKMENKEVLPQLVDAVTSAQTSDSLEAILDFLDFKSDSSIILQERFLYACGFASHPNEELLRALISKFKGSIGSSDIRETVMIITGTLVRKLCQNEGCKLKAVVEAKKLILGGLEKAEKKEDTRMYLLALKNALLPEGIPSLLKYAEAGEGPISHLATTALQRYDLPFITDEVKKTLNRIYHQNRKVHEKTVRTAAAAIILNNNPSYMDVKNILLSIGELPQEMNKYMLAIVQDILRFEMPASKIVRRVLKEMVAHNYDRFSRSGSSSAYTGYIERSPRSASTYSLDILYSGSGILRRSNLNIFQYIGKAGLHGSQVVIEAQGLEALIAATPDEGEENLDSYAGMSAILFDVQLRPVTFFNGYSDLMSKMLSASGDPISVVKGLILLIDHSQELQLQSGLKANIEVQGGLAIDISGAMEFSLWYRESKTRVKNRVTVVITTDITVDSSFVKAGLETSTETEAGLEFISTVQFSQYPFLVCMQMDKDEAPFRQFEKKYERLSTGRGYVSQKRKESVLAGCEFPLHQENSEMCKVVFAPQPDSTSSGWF
Chain of MTP (P07237 18-508 partner, species assumed): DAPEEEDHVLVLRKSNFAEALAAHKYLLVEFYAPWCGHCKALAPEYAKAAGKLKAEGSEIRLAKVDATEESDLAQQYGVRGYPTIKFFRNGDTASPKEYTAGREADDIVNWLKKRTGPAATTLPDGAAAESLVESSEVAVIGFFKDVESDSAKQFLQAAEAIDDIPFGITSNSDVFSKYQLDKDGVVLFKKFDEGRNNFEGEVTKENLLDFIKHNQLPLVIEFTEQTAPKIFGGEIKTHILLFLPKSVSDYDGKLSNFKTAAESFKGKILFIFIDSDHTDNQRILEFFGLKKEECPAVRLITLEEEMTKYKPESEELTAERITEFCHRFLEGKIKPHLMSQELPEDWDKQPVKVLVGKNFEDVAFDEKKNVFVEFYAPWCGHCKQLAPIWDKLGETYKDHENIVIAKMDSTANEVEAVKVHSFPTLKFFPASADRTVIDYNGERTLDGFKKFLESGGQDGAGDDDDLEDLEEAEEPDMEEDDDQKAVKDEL

Row | Compound | IC50 [1] [nM] | IC50 (MTP) [nM]
1 | COC(=O)[C@@H](C)NC(=O)CC1CCN(c2ccc(NC(=O)c3cccc(C)c3-c3ccc(C(F)(F)F)cc3)cc2)CC1 [Compound 44] | 21.1 | 1.7
2 | CCNC(=O)[C@H](C)NC(=O)CC1CCN(c2ccc(NC(=O)c3cccc(C)c3-c3ccc(C(F)(F)F)cc3)cc2)CC1 [Compound 49] | 17.3 | 9.1
3 | CCNC(=O)COC(=O)CC1CCN(c2ccc(NC(=O)c3cccc(C)c3-c3ccc(C(F)(F)F)cc3)cc2)CC1 [Compound 51] | 15.5 | 6.04
4 | CCOC(=O)CC[C@@H](NC(=O)CC1CCN(c2ccc(NC(=O)c3cccc(C)c3-c3ccc(C(F)(F)F)cc3)cc2)CC1)C(=O)OCC [Compound 52] | 74 | 3
5 | COC(=O)[C@H](Cc1c[nH]c2ccccc12)NC(=O)CC1CCN(c2ccc(NC(=O)c3cccc(C)c3-c3ccc(C(F)(F)F)cc3)cc2)CC1 [Compound 53] | 126 | 15.7
6 | COC(=O)CCC(NC(=O)CC1CCN(c2ccc(NC(=O)c3cccc(C)c3-c3ccc(C(F)(F)F)cc3)cc2)CC1)C(=O)OC (centres unmarked) [Compound 54] | 488 | 3.11
7 | COC(=O)CCNC(=O)CC1CCN(c2ccc(NC(=O)c3cccc(C)c3-c3ccc(C(F)(F)F)cc3)cc2)CC1 [Compound 55] | 6.03 | 1.62
